Assay results taken from publication PMC10870048, “2,4‐Dihydroxybenzoic Acid, a Novel SA Derivative, Controls Plant Immunity via UGT95B17‐Mediated Glucosylation: A Case Study in Camellia Sinensis” (Advanced Science, 2023).

Tested on: T1, UGT95B17
T1 construct: full-length ORF in pGEX-4T-1 (N-terminal GST tag of vector)
Experiment: UDP-Glo glycosyltransferase assay
Type: biochemical, Camellia sinensis
Conditions: UDP-glucose co-substrate, pH 7.5, 25 °C, 40 min; read-out: apparent KM

Row | Compound | Km [µM]
1 | O=C(O)c1cccc(O)c1O [2,3-DHBA] | 3.31 ± 0.58
2 | O=C(O)c1ccc(O)cc1O [2,4-DHBA] | 0.81 ± 0.26
3 | O=C(O)c1cc(O)ccc1O [2,5-DHBA] | 0.31 ± 0.11
